pIC50: −log10 of the molar value.

These results are taken from patent publication US10660877B2 (BRISTOL-MYERS SQUIBB COMPANY, priority 2016, dated 2020).

The target in one assay is human TLR9 (Homo sapiens (Human), UniProt Q9NR96). The assay is described as follows: TLR9 inhibition reporter assay (HEK-Blue cells, SEAP reporter, ODN2006 stimulation).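 Further: compounds tested over 0.05 nM to 50 µM, 22 h incubation, inhibition taken as SEAP signal drop from agonist plus DMSO wells toward a known inhibitor control.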 The note with it: read-out: TLR9 IC50, HEK-Blue cells overexpressing human TLR9, ODN2006 5 nM. (In general: In a reporter assay the amount or activity of a reporter protein is the signal.)
Chain of human TLR9 (Q9NR96 26-1032): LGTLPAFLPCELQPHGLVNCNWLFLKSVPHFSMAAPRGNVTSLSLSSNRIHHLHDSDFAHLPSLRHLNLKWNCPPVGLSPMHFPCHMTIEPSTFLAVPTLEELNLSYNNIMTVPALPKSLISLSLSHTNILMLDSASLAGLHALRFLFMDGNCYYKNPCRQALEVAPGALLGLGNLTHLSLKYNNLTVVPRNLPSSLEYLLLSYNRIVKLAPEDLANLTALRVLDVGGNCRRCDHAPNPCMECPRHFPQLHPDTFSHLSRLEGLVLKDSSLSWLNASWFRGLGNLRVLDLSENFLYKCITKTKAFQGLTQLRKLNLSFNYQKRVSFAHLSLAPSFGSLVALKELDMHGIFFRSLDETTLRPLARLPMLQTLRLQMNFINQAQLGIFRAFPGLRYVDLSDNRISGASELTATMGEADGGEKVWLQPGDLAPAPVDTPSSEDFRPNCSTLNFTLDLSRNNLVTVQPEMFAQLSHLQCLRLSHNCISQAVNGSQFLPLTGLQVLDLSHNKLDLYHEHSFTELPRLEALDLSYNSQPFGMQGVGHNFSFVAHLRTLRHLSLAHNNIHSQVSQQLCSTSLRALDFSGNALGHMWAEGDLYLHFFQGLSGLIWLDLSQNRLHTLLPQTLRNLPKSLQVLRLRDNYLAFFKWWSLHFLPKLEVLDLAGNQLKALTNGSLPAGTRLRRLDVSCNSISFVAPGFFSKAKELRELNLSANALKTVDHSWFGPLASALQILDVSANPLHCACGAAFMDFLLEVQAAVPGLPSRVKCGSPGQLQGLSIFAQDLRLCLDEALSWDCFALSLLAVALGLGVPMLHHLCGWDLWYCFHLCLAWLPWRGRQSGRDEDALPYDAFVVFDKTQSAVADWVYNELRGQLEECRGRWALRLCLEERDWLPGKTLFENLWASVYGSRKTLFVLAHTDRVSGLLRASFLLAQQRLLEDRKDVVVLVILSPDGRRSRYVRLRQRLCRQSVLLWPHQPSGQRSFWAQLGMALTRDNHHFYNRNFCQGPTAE
The target in the next assay is human TLR7 (Homo sapiens (Human), UniProt Q9NYK1). The assay is described as follows: TLR7 inhibition reporter assay (HEK-Blue cells, SEAP reporter, gardiquimod stimulation). It counts as cell-based. The following applies: HEK-Blue cells overexpressing human TLR7, gardiquimod 7.5 μM.
Chain of human TLR7 (Q9NYK1 27-1049): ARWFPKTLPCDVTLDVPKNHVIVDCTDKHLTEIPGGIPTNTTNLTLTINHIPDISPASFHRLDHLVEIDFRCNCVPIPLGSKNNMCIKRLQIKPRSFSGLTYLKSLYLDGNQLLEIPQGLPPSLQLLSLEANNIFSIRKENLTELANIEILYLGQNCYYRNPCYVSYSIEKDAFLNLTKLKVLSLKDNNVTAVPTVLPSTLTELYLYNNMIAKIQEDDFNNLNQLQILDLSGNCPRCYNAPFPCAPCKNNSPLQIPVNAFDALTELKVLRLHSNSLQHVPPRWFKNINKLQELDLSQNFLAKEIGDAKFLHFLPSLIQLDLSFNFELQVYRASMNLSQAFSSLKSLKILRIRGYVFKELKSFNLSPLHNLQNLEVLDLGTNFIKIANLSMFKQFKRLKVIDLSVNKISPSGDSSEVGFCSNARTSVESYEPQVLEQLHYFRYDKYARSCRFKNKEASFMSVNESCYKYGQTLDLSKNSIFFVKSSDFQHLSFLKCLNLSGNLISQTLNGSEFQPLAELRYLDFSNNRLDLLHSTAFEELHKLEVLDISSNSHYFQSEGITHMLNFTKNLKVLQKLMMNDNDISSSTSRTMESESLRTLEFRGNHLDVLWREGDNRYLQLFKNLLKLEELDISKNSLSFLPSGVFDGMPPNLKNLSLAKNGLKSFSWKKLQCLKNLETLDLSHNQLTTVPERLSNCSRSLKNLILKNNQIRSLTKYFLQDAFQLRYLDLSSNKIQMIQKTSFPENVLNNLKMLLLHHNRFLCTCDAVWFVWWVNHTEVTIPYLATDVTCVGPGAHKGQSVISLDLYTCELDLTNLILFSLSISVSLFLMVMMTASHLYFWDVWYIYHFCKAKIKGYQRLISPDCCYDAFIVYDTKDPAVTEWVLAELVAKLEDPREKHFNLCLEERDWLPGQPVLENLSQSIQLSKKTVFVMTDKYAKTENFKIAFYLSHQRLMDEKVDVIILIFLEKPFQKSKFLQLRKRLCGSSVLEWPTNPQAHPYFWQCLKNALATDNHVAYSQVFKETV
The target in another assay is human TLR8 (Homo sapiens (Human), UniProt Q9NR97). The experiment in a line: TLR8 inhibition reporter assay (HEK-Blue cells, SEAP reporter, R848 stimulation).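 Further: compounds tested from 0.05 nM to 50 µM, 22 h at 37 °C, SEAP measured with HEK-Blue Detection, inhibition relative to agonist plus DMSO versus a known inhibitor.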 The following applies: read-out: TLR8 IC50, HEK-Blue cells overexpressing human TLR8, R848 15.9 μM.
Chain of human TLR8 (Q9NR97 27-1041): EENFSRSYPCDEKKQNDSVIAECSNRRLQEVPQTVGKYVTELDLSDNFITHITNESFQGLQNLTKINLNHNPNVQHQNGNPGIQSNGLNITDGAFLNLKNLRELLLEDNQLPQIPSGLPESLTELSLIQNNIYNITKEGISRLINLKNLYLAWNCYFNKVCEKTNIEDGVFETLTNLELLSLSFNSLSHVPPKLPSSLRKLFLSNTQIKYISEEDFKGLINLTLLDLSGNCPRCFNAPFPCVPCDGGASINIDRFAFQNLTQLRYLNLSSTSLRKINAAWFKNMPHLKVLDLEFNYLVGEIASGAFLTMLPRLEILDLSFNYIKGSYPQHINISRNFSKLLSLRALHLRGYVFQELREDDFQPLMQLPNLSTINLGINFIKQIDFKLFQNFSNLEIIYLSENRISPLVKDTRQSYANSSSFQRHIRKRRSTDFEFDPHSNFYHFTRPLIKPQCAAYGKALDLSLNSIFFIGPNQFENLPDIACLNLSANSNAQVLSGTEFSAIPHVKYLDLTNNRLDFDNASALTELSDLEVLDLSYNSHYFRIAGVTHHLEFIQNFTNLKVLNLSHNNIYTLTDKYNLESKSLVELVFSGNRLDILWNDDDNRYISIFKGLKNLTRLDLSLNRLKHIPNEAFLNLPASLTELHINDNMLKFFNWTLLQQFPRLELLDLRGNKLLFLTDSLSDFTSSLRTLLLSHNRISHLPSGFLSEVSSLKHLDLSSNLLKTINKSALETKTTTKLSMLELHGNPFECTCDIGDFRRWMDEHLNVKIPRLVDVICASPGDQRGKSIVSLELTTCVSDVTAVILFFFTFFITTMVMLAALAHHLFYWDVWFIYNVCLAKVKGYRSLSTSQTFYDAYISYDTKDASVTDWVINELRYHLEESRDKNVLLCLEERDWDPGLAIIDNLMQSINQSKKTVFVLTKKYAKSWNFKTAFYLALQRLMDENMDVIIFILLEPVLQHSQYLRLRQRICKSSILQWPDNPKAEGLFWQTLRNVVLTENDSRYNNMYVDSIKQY

Procedure for human TLR8: TLR7/8/9 Inhibition Reporter Assays
Briefly, cells are seeded into Greiner 384 well plates (15000 cells per well for TLR7, 20,000 for TLR8 and 25,000 for TLR9) and then treated with test compounds in DMSO to yield a final dose response concentration range of 0.05 nM-50 μM. […] After a 22 hour incubation at 37° C., 5% CO2, SEAP levels are determined with the addition of HEK-Blue™ Detection reagent (Invivogen), a cell culture medium that allows for detection of SEAP, according to manufacturer's specifications. The percent inhibition is determined as the % reduction in the HEK-Blue signal present in wells treated with agonist plus DMSO alone compared to wells treated with a known inhibitor.

Consider `Cc1cc(-c2[nH]c3ccc(C4CCNCC4)cc3c2C(C)C)cc(N)n1` [Example 12, 4-(3-isopropyl-5-(piperidin-4-yl)-1H-indol-2-yl)-6-methylpyridin-2-amine], for which the pIC50 at human TLR9 is 6.44; on human TLR7, 7.70; on human TLR8, 7.40.

`Cc1nccc(-c2[nH]c3ccc(C4CCNCC4)cc3c2C(C)C)c1N` [Example 13, 4-(3-isopropyl-5-(piperidin-4-yl)-1H-indol-2-yl)-2-methylpyridin-3-amine]: the negative-log IC50 (pIC50) at human TLR9 is 6.38; against human TLR7 it was 7.79; at human TLR8 it was 7.05.

Regarding `CC(C)c1c(-c2ccnc(CN)c2)[nH]c2ccc(C3CCNCC3)cc12` [Example 14, (4-(3-isopropyl-5-(piperidin-4-yl)-1H-indol-2-yl)pyridin-2-yl)methanamine], the negative-log IC50 (pIC50) at human TLR9 was 5.92; against human TLR7, 6.37; on human TLR8 it was 6.73.

Consider `Cc1cc(-c2[nH]c3ccc(C4CCNCC4)cc3c2C(C)C)c(C(N)=O)cn1` [Example 15, 4-(3-isopropyl-5-(piperidin-4-yl)-1H-indol-2-yl)-6-methylnicotinamide], for which the pIC50 is 4.58 at human TLR9, 5.81 at human TLR7 and 6.35 on human TLR8.

In the case of `Cc1cc(-c2[nH]c3ccc(C4CCNCC4)cc3c2C(C)C)c(F)cn1` [Example 16, 2-(5-fluoro-2-methylpyridin-4-yl)-3-isopropyl-5-(piperidin-4-yl)-1H-indole], the results for the pIC50 on human TLR9, against human TLR7 and on human TLR8 were 5.61, 8.82 and 8.85, respectively.

`CC(C)c1c(-c2cc(F)ncc2Cl)[nH]c2ccc(C3CCNCC3)cc12` [Example 18, 2-(5-chloro-2-fluoropyridin-4-yl)-3-isopropyl-5-(piperidin-4-yl)-1H-indole]: the results for the pIC50 at human TLR9, at human TLR7 and on human TLR8 were 5.20, 6.75 and 7.33, respectively.

For the compound `CC(C)c1c(-c2c(Cl)cncc2Cl)[nH]c2ccc(C3CCNCC3)cc12` [Example 20, 2-(3,5-dichloropyridin-4-yl)-3-isopropyl-5-(piperidin-4-yl)-1H-indole], the values for the pIC50 at human TLR9, against human TLR7 and at human TLR8 were 5.11, 5.78 and 6.89, respectively.

Consider `CC(C)c1c(-c2ccnc(Cl)c2F)[nH]c2ccc(C3CCNCC3)cc12` [Example 21, 2-(2-chloro-3-fluoropyridin-4-yl)-3-isopropyl-5-(piperidin-4-yl)-1H-indole], for which the pIC50 at human TLR9 was 5.53; against human TLR7, 8.82; at human TLR8, 8.40.

Turning to `CC(C)c1c(-c2ccnc(CO)c2)[nH]c2ccc(C3CCNCC3)cc12` [Example 22, (4-(3-isopropyl-5-(piperidin-4-yl)-1H-indol-2-yl)pyridin-2-yl)methanol], the pIC50 was 5.82 on human TLR9, 7.09 against human TLR7 and 7.12 at human TLR8.

For `Cc1cnccc1-c1[nH]c2ccc(C3CCNCC3)cc2c1C(C)C` [Example 23, 3-isopropyl-2-(3-methylpyridin-4-yl)-5-(piperidin-4-yl)-1H-indole], the pIC50 is 5.06 at human TLR9, 7.01 on human TLR7 and 7.49 at human TLR8.

`CC(C)c1c(-c2ccnc(N(C)C)c2)[nH]c2ccc(C3CCNCC3)cc12` [Example 24, 4-(3-isopropyl-5-(piperidin-4-yl)-1H-indol-2-yl)-N,N-dimethylpyridin-2-amine]: the pIC50 was 5.77 on human TLR9, 5.83 against human TLR7 and 6.15 at human TLR8.

Turning to `CC(C)c1c(-c2cc(Cl)ncc2C#N)[nH]c2ccc(C3CCNCC3)cc12` [Example 26, 6-chloro-4-(3-isopropyl-5-(piperidin-4-yl)-1H-indol-2-yl)nicotinonitrile], the pIC50 at human TLR9 is 5.20; on human TLR7 it was 6.70; on human TLR8, 6.32.

For `Cc1cc(-c2[nH]c3ccc(C4CCNCC4)cc3c2C(C)C)c([N+](=O)[O-])c(C)n1` [Example 27, 2-(2,6-dimethyl-3-nitropyridin-4-yl)-3-isopropyl-5-(piperidin-4-yl)-1H-indole], the negative-log IC50 (pIC50) at human TLR9 was 5.53; at human TLR7 it was 7.82; at human TLR8, 8.05.

In the case of `Cc1cnc(F)cc1-c1[nH]c2ccc(C3CCNCC3)cc2c1C(C)C` [Example 28, 2-(2-fluoro-5-methylpyridin-4-yl)-3-isopropyl-5-(piperidin-4-yl)-1H-indole], the negative logarithm of the IC50 (pIC50) is 5.46 at human TLR9, 8.14 against human TLR7 and 7.47 on human TLR8.

In the case of `Cc1cc(-c2[nH]c3ccc(C4CCNCC4)cc3c2C(C)C)c(N)c(C)n1` [Example 29, 4-(3-isopropyl-5-(piperidin-4-yl)-1H-indol-2-yl)-2,6-dimethylpyridin-3-amine], the pIC50 on human TLR9 was 6.58; on human TLR7 it was 8.68; at human TLR8 it was 7.73.

In the case of `Cc1nccc(-c2[nH]c3ccc(C4CCNCC4)cc3c2C(C)C)c1C` [Example 30, 2-(2,3-dimethylpyridin-4-yl)-3-isopropyl-5-(piperidin-4-yl)-1H-indole], the pIC50 is 6.15 on human TLR9, 7.55 at human TLR7 and 7.65 on human TLR8.

Regarding `Cc1cc(-c2[nH]c3ccc(C4CCNCC4)cc3c2C(C)C)c(C)cn1` [Example 31, 2-(2,5-dimethylpyridin-4-yl)-3-isopropyl-5-(piperidin-4-yl)-1H-indole], the pIC50 is 6.02 at human TLR9, 8.59 against human TLR7 and 9.00 at human TLR8.

Turning to `Cc1cc(-c2[nH]c3ccc(C4CCNCC4)cc3c2C(C)C)c(C#N)c(NCC2CC2)n1` [Example 32, 2-((cyclopropylmethyl)amino)-4-(3-isopropyl-5-(piperidin-4-yl)-1H-indol-2-yl)-6-methylnicotinonitrile], the negative logarithm of the IC50 (pIC50) on human TLR9 is 5.40; at human TLR7, 5.39; on human TLR8, 5.43.

As to `CC(C)c1c(-c2ccnc(C#N)c2C(F)(F)F)[nH]c2ccc(C3CCNCC3)cc12` [Example 33, 4-(3-isopropyl-5-(piperidin-4-yl)-1H-indol-2-yl)-3-(trifluoromethyl)picolinonitrile], the pIC50 at human TLR9 is 5.25; at human TLR7, 5.68; on human TLR8, 6.64.

For the compound `CC(=O)Nc1cnc(C)cc1-c1[nH]c2ccc(C3CCNCC3)cc2c1C(C)C` [Example 34, N-(4-(3-isopropyl-5-(piperidin-4-yl)-1H-indol-2-yl)-6-methylpyridin-3-yl)acetamide], the pIC50 on human TLR9 was 5.34; against human TLR7, 5.90; on human TLR8 it was 6.80.

As to `Cc1c(-c2[nH]c3ccc(C4CCNCC4)cc3c2C(C)C)ccnc1Cl` [Example 35, 2-(2-chloro-3-methylpyridin-4-yl)-3-isopropyl-5-(piperidin-4-yl)-1H-indole], the values for the pIC50 on human TLR9, on human TLR7 and on human TLR8 were 5.39, 7.57 and 7.54, respectively.

As for `CC(C)c1c(-c2ccnc(Cl)c2C#N)[nH]c2ccc(C3CCNCC3)cc12` [Example 36, 2-chloro-4-(3-isopropyl-5-(piperidin-4-yl)-1H-indol-2-yl)nicotinonitrile], the negative logarithm of the IC50 (pIC50) at human TLR9 was 5.31; against human TLR7 it was 5.90; at human TLR8, 6.34.

For `CC(C)c1c(-c2ccncc2NC(=O)C(C)(C)C)[nH]c2ccc(C3CCNCC3)cc12` [Example 37, N-(4-(3-isopropyl-5-(piperidin-4-yl)-1H-indol-2-yl)pyridin-3-yl) pivalamide], the pIC50 is 5.21 at human TLR9, 4.37 against human TLR7 and 6.20 on human TLR8.

Usually pIC50 stands for −log10 of the IC50, conventionally taken in molar units.
